Test [1] concerns the target T1, Muscarinic acetylcholine receptor M2 (Homo sapiens, UniProt P08172).
T1 sequence (P08172 whole entry): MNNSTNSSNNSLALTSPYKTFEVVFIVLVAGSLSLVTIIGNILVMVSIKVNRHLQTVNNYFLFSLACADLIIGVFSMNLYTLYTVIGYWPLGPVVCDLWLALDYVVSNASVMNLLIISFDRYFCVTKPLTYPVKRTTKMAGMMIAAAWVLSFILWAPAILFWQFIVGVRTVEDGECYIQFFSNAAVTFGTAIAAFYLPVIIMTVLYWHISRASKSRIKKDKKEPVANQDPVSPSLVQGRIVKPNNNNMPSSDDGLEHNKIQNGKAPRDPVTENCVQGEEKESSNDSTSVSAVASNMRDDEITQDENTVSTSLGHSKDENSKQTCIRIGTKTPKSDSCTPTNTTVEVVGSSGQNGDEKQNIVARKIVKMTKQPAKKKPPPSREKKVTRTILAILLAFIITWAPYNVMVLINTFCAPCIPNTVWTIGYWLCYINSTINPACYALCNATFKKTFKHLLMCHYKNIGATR
In words: Antagonist activity at cloned muscarinic M2 receptor expressed in CHO cells by measuring calcium mobilization. Type of test: functional, cell-based. Background: A change in cytosolic calcium serves as a functional read-out for many receptors and channels.

Test [2] deals with T2, Muscarinic acetylcholine receptor M1 (Homo sapiens, UniProt P11229).
T2 sequence (P11229 whole entry): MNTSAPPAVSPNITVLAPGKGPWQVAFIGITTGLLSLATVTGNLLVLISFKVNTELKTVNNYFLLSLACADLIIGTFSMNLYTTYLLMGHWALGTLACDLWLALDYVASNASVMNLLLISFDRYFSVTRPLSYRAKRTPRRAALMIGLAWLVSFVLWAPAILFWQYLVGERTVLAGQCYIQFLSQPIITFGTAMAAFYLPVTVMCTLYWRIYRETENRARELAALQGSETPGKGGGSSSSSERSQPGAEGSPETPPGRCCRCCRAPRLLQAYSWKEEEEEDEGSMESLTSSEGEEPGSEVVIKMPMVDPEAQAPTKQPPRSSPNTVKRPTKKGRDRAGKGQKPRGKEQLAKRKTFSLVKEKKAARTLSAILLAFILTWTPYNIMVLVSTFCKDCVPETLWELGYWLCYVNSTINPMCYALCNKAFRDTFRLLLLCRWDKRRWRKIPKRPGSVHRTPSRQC
In words: Antagonist activity at cloned muscarinic M1 receptor expressed in CHO cells by measuring calcium mobilization. Format: functional, cell-based.

The target in test [3] is Muscarinic acetylcholine receptor M3 (Homo sapiens, UniProt P20309). Nature of the test: Antagonist activity at cloned muscarinic M3 receptor expressed in CHO cells by measuring calcium mobilization. Format: functional, cell-based.
Sequence of Muscarinic acetylcholine receptor M3 (P20309 whole entry): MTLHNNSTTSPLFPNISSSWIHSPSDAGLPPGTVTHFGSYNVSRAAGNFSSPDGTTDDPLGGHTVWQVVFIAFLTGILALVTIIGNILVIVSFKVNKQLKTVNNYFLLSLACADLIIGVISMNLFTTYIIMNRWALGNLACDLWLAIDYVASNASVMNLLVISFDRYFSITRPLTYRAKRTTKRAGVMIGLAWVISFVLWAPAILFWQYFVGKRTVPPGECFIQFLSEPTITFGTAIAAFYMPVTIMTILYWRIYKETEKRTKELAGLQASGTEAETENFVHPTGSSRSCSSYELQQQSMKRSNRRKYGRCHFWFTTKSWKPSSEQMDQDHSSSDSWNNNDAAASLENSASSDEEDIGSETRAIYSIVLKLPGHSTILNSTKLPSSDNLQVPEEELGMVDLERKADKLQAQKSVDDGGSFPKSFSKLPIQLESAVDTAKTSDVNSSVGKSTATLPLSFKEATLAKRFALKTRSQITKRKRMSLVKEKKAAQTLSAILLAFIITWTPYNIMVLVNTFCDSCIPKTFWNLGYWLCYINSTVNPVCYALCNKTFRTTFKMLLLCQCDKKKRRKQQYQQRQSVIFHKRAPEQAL
Test [4] concerns the target Muscarinic acetylcholine receptor M1 and M3 (Homo sapiens) (UniProt P20309+P11229). Nature of the test: Selectivity for cloned muscarinic M3 receptor over cloned muscarinic M1 receptor.
Test [5] concerns the target Muscarinic acetylcholine receptors; M2 & M3 (Homo sapiens) (UniProt P20309+P08172). In words: Selectivity for cloned muscarinic M3 receptor over cloned muscarinic M2 receptor.
Test [6] is filed under the species Mus musculus. Nature of the test: Effect on metacholine-induced bronchoconstriction in mouse assessed as bronchoprotection at 5 ug after 15 mins. Type of test: functional.
The species entered for test [7] is Mus musculus. Nature of the test: Effect on metacholine-induced bronchoconstriction in mouse assessed as bronchoprotection at 5 ug after 5 hrs. Format: functional.
Test [8] is filed under the species Mus musculus. Nature of the test: Effect on metacholine-induced bronchoconstriction in mouse assessed as bronchoprotection at 5 ug after 24 hrs. Format: functional.

The structures appear in SMILES notation.

By IC50 is commonly meant the concentration at which inhibition is half-maximal.

Sequence of Muscarinic acetylcholine receptor M1 and M3 (Homo sapiens) (P20309 whole entry, looked up, one chain of several): as the sequence (P20309 whole entry) above

Turning to `C[N+]1(C)[C@@H]2CC[C@H]1C[C@H](OC(=O)N(Cc1cccs1)c1ccccc1)C2.[Br-]`, the IC50 in test [1] stood at 12.5 nM; in test [2], 2.4 nM; in test [3] it was 2.3 nM. The Ratio IC50 turned out to be 1 in test [4] and 5.4 in test [5]. For the same compound, the Activity in the test filed under Mus musculus [6] worked out at 85%.

Turning to `C[N+]1(C)[C@@H]2CC[C@H]1C[C@H](OC(=O)N(Cc1ccccc1)c1ccccc1)C2.[Br-]`, the IC50 in test [1] is 48 nM; in test [2] it was 4.5 nM; in test [3], 4.6 nM. Also, the Ratio IC50 in test [4] was 1; in test [5], 10.4. Also, the Activity in the test listed under Mus musculus [6] is on record as 85%.

Take `C[N+]1(C)[C@@H]2CC[C@H]1C[C@H](OC(=O)N(Cc1ccccc1)c1ccsc1)C2.[Br-]`: the IC50 in test [1] came out at 10.9 nM; in test [2], 2.1 nM; in test [3] it was 2 nM. Further, the Ratio IC50 stood at 1 in test [4] and 5.5 in test [5]. The Activity in the test listed under Mus musculus [6] is given as 85%; in the test listed under Mus musculus [7], 80%; in the test listed under Mus musculus [8], 25%.

For `C[N+]1(C)[C@@H]2CC[C@H]1C[C@@H](OC(=O)N(Cc1ccsc1)c1ccsc1)C2.[Br-]`, the IC50 was 7.2 nM in test [1], 1.6 nM in test [2] and 1 nM in test [3]. Moreover, the results for the Ratio IC50 in test [4] and in test [5] were 1.6 and 7.2, respectively. In the test filed under Mus musculus [6], the Activity worked out at 85%.

As to `C[N+]1(C)[C@@H]2CC[C@H]1C[C@H](OC(=O)N(Cc1ccccc1)c1cccs1)C2.[Br-]`, the IC50 worked out at 13.8 nM in test [1], 2.7 nM in test [2] and 3 nM in test [3]. For the same compound, the values for the Ratio IC50 in test [4] and in test [5] were 0.2 and 5.7, respectively. Further, the Activity in the test filed under Mus musculus [6] is 85%; in the test listed under Mus musculus [7], 80%.

Take `C[N+]1(C)[C@@H]2CC[C@H]1C[C@@H](OC(=O)N(Cc1ccsc1)c1ccccc1)C2.[Br-]`: the IC50 in test [1] worked out at 30.2 nM; in test [2], 2.6 nM; in test [3], 2.8 nM. Besides, the Ratio IC50 in test [4] amounted to 0.9; in test [5], 10.8. Also, in the test listed under Mus musculus [6], the Activity came out at 85%.

As for `C[N+]1(C)[C@@H]2CC[C@H]1C[C@H](OC(=O)N(Cc1ccoc1)c1ccccc1)C2`, the results for the IC50 in test [1], in test [2] and in test [3] were 53.7 nM, 12.2 nM and 16 nM, respectively. Moreover, the figures for the Ratio IC50 in test [4] and in test [5] were 0.8 and 3.4, respectively.
